Values quoted from earlier work in patent publication US20150297661A1, “ANALGESIC COMPOSITIONS AND METHODS OF USE” (priority 2014, published 2015).

With `CCOC(=O)c1ccc(N)cc1` [Benzocaine] as the compound, how does the duration of effect (after application to skin or mucosal surface) read?
The duration of effect was 30 to 60 min.

And the “time to peak effect after application” value (in contact with skin or mucosal surface)?
Its value is at most 1 min.
